Test results as given in patent publication US9561228B2 (Celgene Avilomics Research, Inc., priority 2013, dated 2017).

Columns and labels:
[1] = test system: ERK1/2 phosphorylation of p90RSK in HT29 cells; test: pRSK MSD Assay in HT29 cells; format: cell-based; details: Homo sapiens, HT-29, read-out: ERK1/ERK2 PRSK MSD HT29 EC50
Outline: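 Serum-starved HT29 cells (0.1% FBS overnight) treated with test compound for 120 min at 37° C, then lysed with protease and phosphatase inhibitors. Phospho-p90RSK quantified by MSD sandwich immunoassay: RSK capture antibody, phospho-RSK detection antibody plus Sulfo-tagged antibody, electrochemiluminescence read.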

[2] = test system: ERK1/2 phosphorylation of p90RSK in HCT116 cells; test: Detection of total and phospho-RSK by MSD ELISA (HCT116); format: cell-based; details: Homo sapiens, HCT-116, read-out: ERK1/ERK2 PRSK HCT116 EC50
Outline: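 HCT116 cells treated with compound in RPMI/10% FBS for 2 h at 37° C, then lysed. Phospho-RSK (Ser380) and total RSK in lysates measured by MSD sandwich electrochemiluminescence ELISA as a readout of ERK1/2 activity.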

Question: Which results are given for C=CC(=O)Nc1cc(CN2CCN(C(=O)c3ccccn3)CC2)ccc1Nc1nc(Nc2cc(OC)ncc2C)ncc1C(F)(F)F [Compound I-388, N-(2-((2-((2-methoxy-5-methylpyridin-4-yl)amino)-5-(trifluoromethyl)pyrimidin-4-yl)amino)-5-((4-picolinoylpiperazin-1-yl)methyl)phenyl)acrylamide]?
Answer: EC50 [1]: < 0.1 µM; EC50 [2]: < 0.1 µM

Question: What does the source list for C=CC(=O)Nc1cc(CN2CCN(C(=O)c3ccccn3)CC2)ccc1Nc1nc(Nc2nc(OC)ncc2C)ncc1C(F)(F)F [Compound I-391, N-(2-((2-((2-methoxy-5-methylpyrimidin-4-yl)amino)-5-(trifluoromethyl)pyrimidin-4-yl)amino)-5-((4-picolinoylpiperazin-1-yl)methyl)phenyl)acrylamide]?
Answer: EC50 [1]: 0.101 to 0.5 µM; EC50 [2]: 0.101 to 0.5 µM

Question: C=CC(=O)Nc1cc(CN2CCN(C(=O)c3cccnc3)CC2)ccc1Nc1nc(Nc2nc(OC)ncc2C)ncc1C(F)(F)F [Compound I-392, N-(2-((2-((2-methoxy-5-methylpyrimidin-4-yl)amino)-5-(trifluoromethyl)pyrimidin-4-yl)amino)-5-((4-nicotinoylpiperazin-1-yl)methyl)phenyl)acrylamide] was tested. Which EC50 [1] did it give?
Answer: 0.501 to 0.999 µM

Question: What about the EC50 [2] of the same compound?
Answer: > 1 µM

Question: C=CC(=O)Nc1cc(CN2CCN(C(=O)c3cnccn3)CC2)ccc1Nc1nc(Nc2nc(OC)ncc2C)ncc1C(F)(F)F [Compound I-393, N-(2-((2-((2-methoxy-5-methylpyrimidin-4-yl)amino)-5-(trifluoromethyl)pyrimidin-4-yl)amino)-5-((4-(pyrazine-2-carbonyl)piperazin-1-yl)methyl)phenyl)acrylamide] was tested. Which EC50 [1] did it give?
Answer: 0.501 to 0.999 µM

Question: And the EC50 [2]?
Answer: 0.501 to 0.999 µM

Question: What does the source list for C=CC(=O)Nc1cc(CN2CCN(C)CC2)ccc1Nc1nc(Nc2nc(OC)ncc2C)ncc1C(F)(F)F [Compound I-394, N-(2-((2-((2-methoxy-5-methylpyrimidin-4-yl)amino)-5-(trifluoromethyl)pyrimidin-4-yl)amino)-5-((4-methylpiperazin-1-yl)methyl)phenyl)acrylamide]?
Answer: EC50 [1]: 0.501 to 0.999 µM; EC50 [2]: 0.501 to 0.999 µM

Question: How did the EC50 [1] turn out when C=CC(=O)Nc1ccc(OCC(N)=O)cc1Nc1nc(NC2CCOCC2)ncc1C(F)(F)F [Compound I-395, N-(4-(2-amino-2-oxoethoxy)-2-((2-((tetrahydro-2H-pyran-4-yl)amino)-5-(trifluoromethyl)pyrimidin-4-yl)amino)phenyl)acrylamide] was run?
Answer: > 1 µM

Question: And the EC50 [2]?
Answer: > 1 µM

Question: With C=CC(=O)Nc1cc(OCCN)ccc1Nc1nc(Nc2cc(OC)ncc2C)ncc1C(F)(F)F [Compound I-396, N-(5-(2-aminoethoxy)-2-((2-((2-methoxy-5-methylpyridin-4-yl)amino)-5-(trifluoromethyl)pyrimidin-4-yl)amino)phenyl)acrylamide] as the compound, how does the EC50 [1] read?
Answer: 0.101 to 0.5 µM

Question: And the EC50 [2]?
Answer: 0.101 to 0.5 µM

Question: With C=CC(=O)Nc1cc(C)c(C#N)cc1Nc1nc(NC2CCOCC2)ncc1C(F)(F)F [Compound I-397, N-(4-cyano-5-methyl-2-((2-((tetrahydro-2H-pyran-4-yl)amino)-5-(trifluoromethyl)pyrimidin-4-yl)amino)phenyl)acrylamide] as the compound, how does the EC50 [1] read?
Answer: 0.501 to 0.999 µM

Question: What about the EC50 [2] of the same compound?
Answer: > 1 µM

Question: What does the source list for C=CC(=O)Nc1cc(CN2CCOCC2)ccc1Nc1nc(Nc2cc(OC)ncc2C)ncc1C(F)(F)F [Compound I-399, N-(2-((2-((2-methoxy-5-methylpyridin-4-yl)amino)-5-(trifluoromethyl)pyrimidin-4-yl)amino)-5-(morpholinomethyl)phenyl)acrylamide]?
Answer: EC50 [1]: 0.501 to 0.999 µM; EC50 [2]: 0.101 to 0.5 µM

Question: Which results are given for C=CC(=O)Nc1cc(C(=O)N2CCN(S(C)(=O)=O)CC2)ccc1Nc1nc(Nc2cc(OC)ncc2C)ncc1C(F)(F)F [Compound I-401, N-(2-((2-((2-methoxy-5-methylpyridin-4-yl)amino)-5-(trifluoromethyl)pyrimidin-4-yl)amino)-5-(4-(methylsulfonyl)piperazine-1-carbonyl)phenyl)acrylamide]?
Answer: EC50 [1]: 0.101 to 0.5 µM; EC50 [2]: 0.101 to 0.5 µM

Question: Which results are given for C=CC(=O)Nc1cc(OC(F)(F)F)ccc1Nc1nc(Nc2cc(OC)ncc2C)ncc1C(F)(F)F [Compound I-407, N-(2-((2-((2-methoxy-5-methylpyridin-4-yl)amino)-5-(trifluoromethyl)pyrimidin-4-yl)amino)-5-(trifluoromethoxy)phenyl)acrylamide]?
Answer: EC50 [1]: < 0.1 µM; EC50 [2]: 0.101 to 0.5 µM

Question: For C=CC(=O)Nc1cc(C)ccc1Nc1nc(Nc2cc(OC)ncc2CC)ncc1C(F)(F)F [Compound I-408, N-(2-((2-((5-ethyl-2-methoxypyridin-4-yl)amino)-5-(trifluoromethyl)pyrimidin-4-yl)amino)-5-methylphenyl)acrylamide], which EC50 [1] is on record?
Answer: 0.101 to 0.5 µM

Question: And the EC50 [2]?
Answer: 0.501 to 0.999 µM

Question: C=CC(=O)Nc1cc(O[C@H](C)C(=O)N2CCN(C(C)=O)CC2)ccc1Nc1nc(Nc2cc(OC)ncc2C)ncc1C(F)(F)F [Compound I-409, (R)—N-(5-((1-(4-acetylpiperazin-1-yl)-1-oxopropan-2-yl)oxy)-2-((2-((2-methoxy-5-methylpyridin-4-yl)amino)-5-(trifluoromethyl)pyrimidin-4-yl)amino)phenyl)acrylamide] was tested. Which EC50 [1] did it give?
Answer: 0.501 to 0.999 µM

Question: What about the EC50 [2] of the same compound?
Answer: 0.501 to 0.999 µM

Question: Which results are given for C=CC(=O)Nc1cc(O[C@H](C)C(=O)N2CCN(S(C)(=O)=O)CC2)ccc1Nc1nc(Nc2cc(OC)ncc2C)ncc1C(F)(F)F [Compound I-410, (R)—N-(2-((2-((2-methoxy-5-methylpyridin-4-yl)amino)-5-(trifluoromethyl)pyrimidin-4-yl)amino)-5-((1-(4-(methylsulfonyl)piperazin-1-yl)-1-oxopropan-2-yl)oxy)phenyl)acrylamide]?
Answer: EC50 [1]: 0.101 to 0.5 µM; EC50 [2]: 0.101 to 0.5 µM

Question: How did the EC50 [1] turn out when C=CC(=O)Nc1c(Nc2nc(Nc3cc(OC)ncc3C)ncc2OC)cccc1OCc1nccs1 [Compound I-411, N-(2-((5-methoxy-2-((2-methoxy-5-methylpyridin-4-yl)amino)pyrimidin-4-yl)amino)-6-(thiazol-2-ylmethoxy)phenyl)acrylamide] was run?
Answer: > 1 µM

Question: And the EC50 [2]?
Answer: > 1 µM

Question: For C=CC(=O)Nc1cc(O[C@@H](C)C(N)=O)ccc1Nc1nc(Nc2cc(OC)ncc2C)ncc1C(F)(F)F [Compound I-412, (S)—N-(5-((1-amino-1-oxopropan-2-yl)oxy)-2-((2-((2-methoxy-5-methylpyridin-4-yl)amino)-5-(trifluoromethyl)pyrimidin-4-yl)amino)phenyl)acrylamide], which EC50 [1] is on record?
Answer: > 1 µM

Question: What about the EC50 [2] of the same compound?
Answer: 0.101 to 0.5 µM

Question: C=CC(=O)Nc1cc(O[C@H](C)C(N)=O)ccc1Nc1nc(Nc2cc(OC)ncc2C)ncc1C(F)(F)F [Compound I-413, (R)—N-(5-((1-amino-1-oxopropan-2-yl)oxy)-2-((2-((2-methoxy-5-methylpyridin-4-yl)amino)-5-(trifluoromethyl)pyrimidin-4-yl)amino)phenyl)acrylamide] was tested. Which EC50 [1] did it give?
Answer: < 0.1 µM

Question: And the EC50 [2]?
Answer: < 0.1 µM

Question: Which results are given for C=CC(=O)Nc1cc(OCC(=O)N2CCN(C(C)=O)CC2)ccc1Nc1nc(Nc2cc(OC)ncc2OC)ncc1C(F)(F)F [Compound I-415, N-(5-(2-(4-acetylpiperazin-1-yl)-2-oxoethoxy)-2-((2-((2,5-dimethoxypyridin-4-yl)amino)-5-(trifluoromethyl)pyrimidin-4-yl)amino)phenyl)acrylamide]?
Answer: EC50 [1]: 0.501 to 0.999 µM; EC50 [2]: 0.101 to 0.5 µM

Question: Which results are given for C=CC(=O)Nc1cc(OCCN2CCN(C(C)=O)CC2)ccc1Nc1nc(Nc2cc(OC)ncc2C)ncc1C(F)(F)F [Compound I-416, N-(5-(2-(4-acetylpiperazin-1-yl)ethoxy)-2-((2-((2-methoxy-5-methylpyridin-4-yl)amino)-5-(trifluoromethyl)pyrimidin-4-yl)amino)phenyl)acrylamide]?
Answer: EC50 [1]: 0.101 to 0.5 µM; EC50 [2]: 0.101 to 0.5 µM

Question: How did the EC50 [1] turn out when C=CC(=O)Nc1cc(C)ccc1Nc1nc(NCC2COC2)ncc1C(F)(F)F [Compound I-417, N-(5-methyl-2-((2-((oxetan-3-ylmethyl)amino)-5-(trifluoromethyl)pyrimidin-4-yl)amino)phenyl)acrylamide] was run?
Answer: > 1 µM

Question: And the EC50 [2]?
Answer: > 1 µM

Question: For C=CC(=O)Nc1cc(C)ccc1Nc1nc(Nc2cc(C(=O)OC)nn2C)ncc1C(F)(F)F [Compound I-418, Methyl 5-((4-((2-acrylamido-4-methylphenyl)amino)-5-(trifluoromethyl)pyrimidin-2-yl)amino)-1-methyl-1H-pyrazole-3-carboxylate], which EC50 [1] is on record?
Answer: 0.501 to 0.999 µM

Question: What about the EC50 [2] of the same compound?
Answer: 0.101 to 0.5 µM

Question: With C=CC(=O)Nc1cc(C)ccc1Nc1nc(Nc2cc(C(F)(F)F)nn2C)ncc1C(F)(F)F [Compound I-419, N-(5-methyl-2-((2-((1-methyl-3-(trifluoromethyl)-1H-pyrazol-5-yl)amino)-5-(trifluoromethyl)pyrimidin-4-yl)amino)phenyl)acrylamide] as the compound, how does the EC50 [1] read?
Answer: > 1 µM

Question: What about the EC50 [2] of the same compound?
Answer: > 1 µM

Question: Which results are given for C=CC(=O)Nc1cc(C)ccc1Nc1nc(NC2COC2)ncc1C(F)(F)F [Compound I-420, N-(5-methyl-2-((2-(oxetan-3-ylamino)-5-(trifluoromethyl)pyrimidin-4-yl)amino)phenyl)acrylamide]?
Answer: EC50 [1]: > 1 µM; EC50 [2]: > 1 µM

Question: How did the EC50 [1] turn out when C=CC(=O)Nc1cc(CN2CCN(C(C)=O)C[C@@H]2C)ccc1Nc1nc(Nc2cc(OC)ncc2C)ncc1C(F)(F)F [Compound I-421, (S)—N-(5-((4-acetyl-2-methylpiperazin-1-yl)methyl)-2-((2-((2-methoxy-5-methylpyridin-4-yl)amino)-5-(trifluoromethyl)pyrimidin-4-yl)amino)phenyl)acrylamide] was run?
Answer: 0.101 to 0.5 µM

Question: What about the EC50 [2] of the same compound?
Answer: 0.101 to 0.5 µM

Question: C=CC(=O)Nc1cc(CN2CCN(C(C)=O)C[C@H]2C)ccc1Nc1nc(Nc2cc(OC)ncc2C)ncc1C(F)(F)F [Compound I-422, (R)—N-(5-((4-acetyl-2-methylpiperazin-1-yl)methyl)-2-((2-((2-methoxy-5-methylpyridin-4-yl)amino)-5-(trifluoromethyl)pyrimidin-4-yl)amino)phenyl)acrylamide] was tested. Which EC50 [1] did it give?
Answer: 0.101 to 0.5 µM

Question: And the EC50 [2]?
Answer: < 0.1 µM
